According to patent US20210330818A1, “METHOD FOR ANALYZING NON-OBSERVED EFFECT CONCENTRATION (NOEC) OF CHEMICAL ON ORGANISM” (priority 2020, published 2021):

How the values were obtained:
[1] = test system: Trichogramma; test: Chronic toxicity test on Trichogramma, egg card-dipping method; details: for NOEC (smallest NOEC among the endpoint effects): Trichogramma, overall over egg yield, emergence rate, adult survival time
From the text: Trichogramma is one of the natural enemies that are most widely used and have dominant influence. As an important means to control insect pests, chemical pesticides can also cause toxic and side effects to natural enemies of the insect pests that will be killed by the chemical pesticides. […] In the test, Trichogramma was adopted as a test organism, dimethoate and imidacloprid were adopted as test chemicals, and endpoint effects were egg yield, emergence rate and adult survival time. 6 treatment concentrations (including 1 blank control and 5 test chemical concentrations, see Table 1 for details) were set for each test chemical group.
The egg card-dipping method was adopted. A 1.0 cm×2.0 cm card of rice moth eggs (approximately 100 eggs) was placed in each finger tube, then about 20 Trichogramma adults at 4 h to 6 h after emergence were introduced, and the Trichogramma adults were removed after they had parasitized the rice moth eggs for 24 h. 144 h later, the egg cards were dipped in test solutions with different concentrations separately for 5 s, then taken out and air dried, and put into finger tubes. The tubes were sealed with a black cloth, and then put in an incubator until the emergence of Trichogramma adults was completed. A 0.1% Triton X-100 aqueous solution was adopted as a blank control. 9 replicates were set for each treatment, and divided into three groups for the observation of 3 endpoint effects respectively, namely, with 3 replicates for each endpoint effect. A first group was used to investigate the egg yield; a second group was used to investigate the number of emerged adults, and the emergence rate was calculated (emergence rate=the number of emerged adults/the number of […]×100%); and a third group was used to investigate the adult survival time. If the number of emerged adults is less than 30 or the emerged adults have a low vitality and thus cannot be transferred to a new finger tube autonomously, the parasitism rate and survival time will not be investigated.

[2] = test system: quail; test: Chronic toxicity (growth and reproduction) test for quails fed poisonous feedstuff; type: in vivo; details: for Egg production: average daily, day 40 to 48; for Stillbirth rate: eggs of day 45 to 50; for NOEC (smallest NOEC among the endpoint effects): quail, overall over body weight, egg production, stillbirth rate
From the text: In the test, the quail was adopted as a test organism, acetamiprid and MCPA were adopted as test chemicals, and the end effects were body weight, average daily egg production and stillbirth rate.
Healthy and lively quails, which were 30-day old and weighed 90 g to 110 g, were selected for the test. The male and female were raised separately, with 10 quails for each cage. The quails were fed with a poisonous feedstuff twice a day at the same feeding amount for a long time, with an average feeding amount of 20 g per day for each quail. Since the feeding started, the body weight was recorded for quails in each treatment; the number of eggs produced on day 40 to 48 was counted; the eggs produced on day 45 to 50 were collected and hatched in a poultry-specific hatcher separately for each treatment; and the stillbirth rate was calculated. In this example, the endpoint effect data were body weight, egg production and stillbirth rate.

[3] = mass concentration 1.25 mg/Lfeedstuff
[4] = mass concentration 6.25 mg/Lfeedstuff
[5] = mass concentration 25 mg/Lfeedstuff
[6] = mass concentration 125 mg/Lfeedstuff
[7] = mass concentration 500 mg/Lfeedstuff
[8] = mass concentration 0.5 mg/Lfeedstuff
[9] = mass concentration 2 mg/Lfeedstuff
[10] = mass concentration 7 mg/Lfeedstuff
[11] = mass concentration 30 mg/Lfeedstuff
[12] = mass concentration 130 mg/Lfeedstuff

How did the “Validation: emergence rate compared with blank control” value ([1]; 35 mg/L) turn out when `O=[N+]([O-])NC1=NCCN1Cc1ccc(Cl)nc1` [Imidacloprid, imidacloprid] was run?
The value was “no significant difference”.

And the “NOEC (smallest NOEC among the endpoint effects)” value [1]?
Its value is 40 mg/L.

And the “NOEC for chronic toxicity in Trichogramma based on the adult survival time” value [1]?
The value was 160 mg/L.

What about the “NOEC for chronic toxicity in Trichogramma based on the egg yield” value [1] of the same compound?
Its value is 80 mg/L.

What about the “NOEC for chronic toxicity in Trichogramma based on the emergence rate” value [1] of the same compound?
Its value is 40 mg/L.

What about the Adult survival time ([1]; mass concentration 10 mg/L) of the same compound?
The Adult survival time was 3.60 a d.

And the Egg yield ([1]; mass concentration 10 mg/L)?
The Egg yield was 37.0 a eggs.

What about the Emergence rate ([1]; mass concentration 10 mg/L) of the same compound?
Its Emergence rate is 90.57 a %.

What about the Adult survival time ([1]; mass concentration 20 mg/L) of the same compound?
Its Adult survival time is 3.23 a d.

And the Egg yield ([1]; mass concentration 20 mg/L)?
Its Egg yield is 37.3 a eggs.

What about the Emergence rate ([1]; mass concentration 20 mg/L) of the same compound?
Its Emergence rate is 87.81 a %.

And the Adult survival time ([1]; mass concentration 40 mg/L)?
The Adult survival time was 3.50 a d.

What about the Egg yield ([1]; mass concentration 40 mg/L) of the same compound?
The Egg yield was 36.0 a eggs.

And the Emergence rate ([1]; mass concentration 40 mg/L)?
The Emergence rate was 78.19 a %.

And the Adult survival time ([1]; mass concentration 80 mg/L)?
Its Adult survival time is 3.21 a d.

And the Egg yield ([1]; mass concentration 80 mg/L)?
Its Egg yield is 34.2 a eggs.

What about the Emergence rate ([1]; mass concentration 80 mg/L) of the same compound?
Its Emergence rate is 56.12 b %.

What about the Adult survival time ([1]; mass concentration 160 mg/L) of the same compound?
The Adult survival time was 3.12 a d.

And the Egg yield ([1]; mass concentration 160 mg/L)?
The Egg yield was 28.5 b eggs.

And the Emergence rate ([1]; mass concentration 160 mg/L)?
Its Emergence rate is 27.65 c %.

Which “Validation: egg yield compared with blank control” value ([1]; 90 mg/L) does the source give for `CNC(=O)CSP(=S)(OC)OC` [Dimethoate, dimethoate] here?
Its value is “no significant difference”.

What about the “NOEC (smallest NOEC among the endpoint effects)” value [1] of the same compound?
The value was 100 mg/L.

What about the “NOEC for chronic toxicity in Trichogramma based on the adult survival time” value [1] of the same compound?
The value was 400 mg/L.

And the “NOEC for chronic toxicity in Trichogramma based on the egg yield” value [1]?
Its value is 100 mg/L.

And the “NOEC for chronic toxicity in Trichogramma based on the emergence rate” value [1]?
The value was 200 mg/L.

And the Adult survival time ([1]; mass concentration 25 mg/L)?
The Adult survival time was 3.15 a d.

And the Egg yield ([1]; mass concentration 25 mg/L)?
Its Egg yield is 36.1 a eggs.

What about the Adult survival time ([1]; mass concentration 50 mg/L) of the same compound?
Its Adult survival time is 3.27 a d.

And the Egg yield ([1]; mass concentration 50 mg/L)?
The Egg yield was 34.2 a eggs.

What about the Adult survival time ([1]; mass concentration 100 mg/L) of the same compound?
Its Adult survival time is 3.30 a d.

And the Egg yield ([1]; mass concentration 100 mg/L)?
Its Egg yield is 31.6 a eggs.

And the Adult survival time ([1]; mass concentration 200 mg/L)?
Its Adult survival time is 2.67 a d.

What about the Egg yield ([1]; mass concentration 200 mg/L) of the same compound?
Its Egg yield is 27.2 b eggs.

And the Adult survival time ([1]; mass concentration 400 mg/L)?
The Adult survival time was 2.32 a d.

And the Egg yield ([1]; mass concentration 400 mg/L)?
Its Egg yield is 20.7 b eggs.

Which results are given for `Cc1cc(Cl)ccc1OCC(=O)O` [MCPA]?
Validation: body weight compared with blank control ([2]; 20 mg/L): no significant difference; NOEC for chronic toxicity in quails based on the body weight [2]: 25 mg/kgfeedstuff; NOEC for chronic toxicity in quails based on the egg production [2]: 500 mg/kgfeedstuff; NOEC for chronic toxicity in quails based on the stillbirth rate [2]: 25 mg/kgfeedstuff; Body weight [2, 3]: 148.5 ab g; Egg production [2, 3]: 0.97 a eggs; Stillbirth rate [2, 3]: 22.4 a %; Body weight [2, 4]: 155.3 ab g; Egg production [2, 4]: 0.96 a eggs; Stillbirth rate [2, 4]: 23.2 ab %; Body weight [2, 5]: 150.7 ab g; Egg production [2, 5]: 0.96 a eggs; Stillbirth rate [2, 5]: 21.2 a %; Body weight [2, 6]: 145.2 b g; Egg production [2, 6]: 0.95 a eggs; Stillbirth rate [2, 6]: 26.4 b %; Body weight [2, 7]: 159.5 a g; Egg production [2, 7]: 0.94 a eggs; Stillbirth rate [2, 7]: 37.3 b %; NOEC (smallest NOEC among the endpoint effects) [2]: 25 mg/kgfeedstuff

Which “Validation: body weight compared with blank control” value ([2]; 125 mg/L) does the source give for `C/C(=N\C#N)N(C)Cc1ccc(Cl)nc1` [Acetamiprid, acetamiprid] here?
The value was “no significant difference”.

And the “Validation: egg production compared with blank control” value ([2]; 125 mg/L)?
Its value is “no significant difference”.

And the “Validation: stillbirth rate compared with blank control” value ([2]; 125 mg/L)?
Its value is “no significant difference”.

And the “NOEC for chronic toxicity in quails based on the body weight” value [2]?
Its value is 130 mg/kgfeedstuff.

And the “NOEC for chronic toxicity in quails based on the egg production” value [2]?
The value was 130 mg/kgfeedstuff.

What about the “NOEC for chronic toxicity in quails based on the stillbirth rate” value [2] of the same compound?
Its value is 130 mg/kgfeedstuff.

What about the Body weight [2, 8] of the same compound?
Its Body weight is 150.9 a g.

What about the Egg production [2, 8] of the same compound?
The Egg production was 0.87 a eggs.

And the Stillbirth rate [2, 8]?
The Stillbirth rate was 23.4 a %.

What about the Body weight [2, 9] of the same compound?
The Body weight was 156.7 a g.

What about the Egg production [2, 9] of the same compound?
The Egg production was 0.86 a eggs.

What about the Stillbirth rate [2, 9] of the same compound?
Its Stillbirth rate is 16.7 a %.

What about the Body weight [2, 10] of the same compound?
Its Body weight is 153.6 a g.

And the Egg production [2, 10]?
Its Egg production is 0.87 a eggs.

What about the Stillbirth rate [2, 10] of the same compound?
The Stillbirth rate was 25.7 a %.

What about the Body weight [2, 11] of the same compound?
The Body weight was 151.9 a g.

And the Egg production [2, 11]?
The Egg production was 0.89 a eggs.

What about the Stillbirth rate [2, 11] of the same compound?
The Stillbirth rate was 26.4 a %.

And the Body weight [2, 12]?
Its Body weight is 145.4 a g.

What about the Egg production [2, 12] of the same compound?
Its Egg production is 0.86 a eggs.

What about the Stillbirth rate [2, 12] of the same compound?
Its Stillbirth rate is 21.9 a %.

And the “NOEC (smallest NOEC among the endpoint effects)” value [2]?
The value was 130 mg/kgfeedstuff.
